Results as given in patent US10752626B2, “Iso-citrate dehydrogenase (IDH) inhibitor” (SHANGHAI METON PHARMACEUTICAL CO., LTD, priority 2016, dated 2020).

Columns and labels:
[1] = target: IDH1 R132H (Homo sapiens (Human), UniProt O75874, R132H); experiment: Biochemical assay for inhibition of mutant IDH1 R132H; conditions: tested in triplet
Description: (§1) The present disclosure provides a biochemical assay method for detecting the IDH inhibition and selectivity of the compounds by detecting IDH enzyme activity directly.
(§2) Wild-type IDH enzyme could convert NADP^+ to NADPH when it catalyzes the α-KG producing reaction. Mutant IDH enzyme could convert NADPH to NADP^+ when it catalyzes the D-2-HG producing reaction. So the activity of wild-type and mutant IDH1/2 could be measured by monitoring NADPH level change: in the reaction catalyzed by wild-type IDH1/2, the newly generated NADPH is utilized instantly by coupled diaphorase-resazurin reaction to generate resorufin which is fluorescent (at Excitation 544 nm, Emission 590 nm) and thus NADPH is monitored indirectly; while in the reaction catalyzed by mutant IDH1/2, NADPH is directly monitored as it is fluorescent (at Excitation 340 nm, Emission 460 nm). By monitoring the change of NADPH level in the reaction, the enzyme activity could be determined rapidly and efficiently, IC50 of a compound could also be assayed.
(§3) The test compounds were prepared into 50 mM stock solutions in DMSO and stored at −20° C. Each test compound stock was further diluted to obtain a 100× stock solution at a concentration of 200 μM, 100 μM, 50 μM, 25 μM, 12.5 jμM, 6.25 μM and 3.125 μM, respectively, for the final use on the day of test.
(§4) Inhibition of Mutant IDHJ (R132H or R132C):
(§5) Solution A was prepared by combining 1 M Tris-HCl pH7.5 (300 μL), 5 M NaCl (450 μL), 1 M MgCl2 (150 μL), 1 M DTT (15 μL), 20 mg/mL BSA (37.5 μL), 20 mM NADPH (20 μL), and 0.5 mM α-KG (40 μL), followed by adding deionized water to a final volume of 15 mL.
(§6) Reaction buffer was prepared by combining 1 M Tris-HCl pH 7.5 (200 μL), 5 M NaCl (300 μL), 1 M MgCl2 (100 μL), 1 M DTT (10 μL) and 20 mg/mL BSA (25 μL), followed by adding deionized water to a final volume of 10 mL.
(§7) Solution B was prepared by combining the reaction buffer (5 mL) and […] IDH1-R132H (5.21 μL) or 107 μM IDH1-R132C (4.67 μL).
(§8) 148 μL Solution A was added into each sample well of a 96-well plate P1, and then 2 μL of the test compound solution at each concentration and 2 μL of DMSO (negative control/blank) were added into individual sample well respectively. 50 μL of Solution B was added into each of the sample wells having test compounds and one sample well having DMSO only, and 50 μL of reaction buffer was added into another sample well having DMSO only, respectively. P1 was put into BioTek Synergy H4 Microplate reader (BioTek Instruments Inc., Winooski, U.S.), and the program was set as follows: 37° C., shake plate 5 seconds, run kinetic mode, total detection time 20 min, detection intervals 40 seconds, detection mode fluorescence (at Excitation 340 nm, Emission 460 nm). The data were exported, the relative enzyme activity and the half-maximal inhibitory concentration (IC50) for the test compound were calculated. Relative enzyme activity was calculated as the absolute value of the slope of the Emission 460 reads of each well plotted against time (which represents the conversion rate of ca-KG to 2-HG through IDH1 modulated utilization of NADPH). The Dose-response curve was drawn and the IC50 was calculated via fitting. The IDH inhibition and selectivity of each test compound can be evaluated according to the effect of the compounds on the IDH enzyme activity.
(§9) The IDH inhibition activity of the compounds were assessed according to Test 5 of the Biological evaluation section. The test for mutant IDH1 R132H/R132C inhibition of each compound was carried out in triplet. For IDH1 R132H, the enzyme activity of exemplary Compounds 16, 21, 22, 23, 24 and 31 is plotted as a function of logarithm of the concentration of the compound in FIGS. 8A-8C, 9A-9C, 10A-10C, 11A-11C, 12A-12C and 13A-13C, respectively. […]

[2] = target: T1, IDH1 R132C (Homo sapiens (Human), UniProt O75874, R132C); experiment: Biochemical assay for inhibition of mutant IDH1 R132C; conditions: tested in triplet
Description: as §1, §2, §3, §4, §5, §6, §7, §8, §9
Target sequence in this assay (O75874 whole entry R132C): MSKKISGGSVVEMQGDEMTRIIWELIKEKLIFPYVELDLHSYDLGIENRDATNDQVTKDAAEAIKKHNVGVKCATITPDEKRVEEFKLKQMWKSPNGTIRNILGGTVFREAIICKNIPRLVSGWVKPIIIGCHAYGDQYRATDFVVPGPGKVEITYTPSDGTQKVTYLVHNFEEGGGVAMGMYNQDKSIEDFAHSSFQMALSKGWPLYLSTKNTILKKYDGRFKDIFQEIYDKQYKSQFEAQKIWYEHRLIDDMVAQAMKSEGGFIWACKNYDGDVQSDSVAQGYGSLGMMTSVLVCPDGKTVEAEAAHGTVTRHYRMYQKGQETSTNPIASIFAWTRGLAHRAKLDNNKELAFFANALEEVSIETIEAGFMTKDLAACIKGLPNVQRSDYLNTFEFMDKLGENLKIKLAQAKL

[3] = target: T1, IDH1 R132C; experiment: Improved cell-based assay: D-2-HG in HT1080 cells over-expressing D-2-HG dehydrogenase; conditions: 12 h
Description: The present disclosure also provides a cell based method for assaying IDH inhibition and selectivity of the compounds in human fibrosacoma cell line HT1080 and cholangiocarcinoma cell line HCCC 9810, which harbor endogenous heterozygous IDH1 R132C and R132H mutation respectively and accumulate D-2-HG Tumor derived IDH mutant lost its normal activity of producing α-KG and gained a new activity of producing D-2-HG D-2-HG is a metabolite specifically elevated in IDH mutated tumor samples.
By treating HT1080 and HCCC 9810 cells with an effective IDH inhibitor, the synthesis of D-2-HG is blocked, and D-2-HG concentration is decreased by the oxidation reaction catalyzed by D-2-HG dehydrogenase.
To perform a cell based IDH inhibitor assay, HT1080 and HCCC 9810 cells (or other cell lines harboring different IDH mutations) are cultured in DMEM supplemented with 10% FBS. The cells are treated with compounds of present disclosure at various different concentration. At various time points (between 4-24 hours) after the treatment, cell culture supernatants were removed and cells were washed with PBS for one or two times. Cell metabolites are extracted by adding 80% methanol (pre-chilled under −80° C.) in the cells, extract at 4° C. temperature for 60 min, centrifuged to remove any insoluble component. Metabolites (clear supernatant from the previous step) are lyophilized and reconstituted in pyridine containing 20 mg/ml O-methoxyamineHCl and are incubated at 70° C. for 40 minutes. After cooling down to room temperature, MTBSTFA (N-tert-Butyldimethylsilyl-N-methyltrifluoroacetamide, Sigma Aldrich) is added at a volume ratio of 4:7 (e.g., 20 μL MTBSTFA to 35 μL 20 mg/ml O-methoxyamineHCl solution) and derivation is performed at 70° C. for 30 minutes. The derived metabolites including D-2-HG are analyzed by Agilent 7890A-5750 GC/MS system. […] of the derived metabolite is injected into Agilent 7890A-5750 for D-2-HG concentration analysis. GC oven temperature is programmed from 140° C. to 260° C. at 10° C./min, from 260° C. to 310° C. at 8° C./min and hold at 310° C. for 5 min. The flow rate of carrier gas is 1 ml/min. The mass spectrometer is operated in the electron impact (EI) mode at 70 eV D-2-HG is normalized to endogenous glutamate.
The activity of IDHs in the presence of each compounds at different concentrations can be represented by relative D-2-HG concentration to negative control samples, and the IC50 value, the inhibition and selectivity for each compound can be evaluated.
The present disclosure also provides an improved cell-based assay for IDH inhibition and selectivity of the compounds, which involves stably over-expressing D-2-HG dehydrogenase in HT1080 and HCCC 9810 cells.
According to previous report, over expression of D-2-HG dehydrogenase decreases the half-life of D-2-HG in HT1080 cells (FIGS. 2A and 2B) [“D-2-hydroxyglutarate is essential for maintaining oncogenic property of mutant IDH-containing cancer cells but dispensable for cell growth”, Ma, S., et al., Oncotarget, (2015)], making the cells more sensitive to D-2-HG synthesis blockage by mutant IDH1 inhibitors. It will greatly increase the sensitivity and accurateness of this cell based assay. In the improved cell-based assay, all other steps are performed as disclosed in Test 6.
The D-2-HG inhibition activity of compounds was also assessed in the improved cell-based assay according to the method disclosed in Test 7 of the Biological evaluation section. HT1080 cells over-expressing D-2-HG dehydrogenase were cultured in 35 mm plate and treated with each of Compounds 1-37 at a concentration of 0.5 μM, 1 μM, 2.5 μM and 5 μM for 12 h, respectively, and the D-2-HG concentration was analysed. The inhibition ratio of D-2-HG in HT1080 cell by the exemplary Compounds 16, 21-24 and 31 at different concentrations were shown in Table 10.
Target sequence in this assay (O75874 2-414 R132C): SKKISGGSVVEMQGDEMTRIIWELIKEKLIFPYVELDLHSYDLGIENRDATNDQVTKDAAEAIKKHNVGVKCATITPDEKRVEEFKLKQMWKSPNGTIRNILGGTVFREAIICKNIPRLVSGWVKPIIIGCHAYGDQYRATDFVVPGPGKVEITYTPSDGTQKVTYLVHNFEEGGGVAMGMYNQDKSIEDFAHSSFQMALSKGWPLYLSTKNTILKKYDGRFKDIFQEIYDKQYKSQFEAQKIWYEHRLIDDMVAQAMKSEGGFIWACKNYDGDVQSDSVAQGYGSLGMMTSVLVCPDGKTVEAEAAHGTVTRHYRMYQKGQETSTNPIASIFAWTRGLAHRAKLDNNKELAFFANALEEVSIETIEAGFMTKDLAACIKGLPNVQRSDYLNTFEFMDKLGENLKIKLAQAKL

IDH1 R132H, sequence (O75874 whole entry R132H): as the sequence (O75874 whole entry R132C) above, with C132H counted along it

Row | SMILES | IC50 [1] [nM] | IC50 [2] [nM] | Inhibition ratio of D-2-HG in HT1080 cell ([3]; 0.5 μM) [%] | Inhibition ratio of D-2-HG in HT1080 cell ([3]; 1 μM) [%] | Inhibition ratio of D-2-HG in HT1080 cell ([3]; 2.5 μM) [%] | Inhibition ratio of D-2-HG in HT1080 cell ([3]; 5 μM) [%]
1 | CCN1Cc2c(ccnc2N[C@@H](C)c2ccc(Oc3cccc(F)c3)cc2)C1=O [Compound 21, (S)-2-ethyl-4-((1-(4-(3-fluorophenoxy)phenyl)ethyl)amino)-2,3-dihydro-1H-pyrrolo[3,4-c]pyridin-1-one] | < 1000 | < 1500 | 20.2 | 18.7 | 43.1 | 76.1
2 | CCN1Cc2c(ccnc2N[C@@H](C)c2ccc(Oc3ccccc3F)cc2)C1=O [Compound 22, (S)-2-ethyl-4-((1-(4-(2-fluorophenoxy)phenyl)ethyl)amino)-2,3-dihydro-1H-pyrrolo[3,4-c]pyridin-1-one] | < 1000 | < 1500 | 36.3 | 53.3 | 72.3 | 87.8
3 | CCN1Cc2c(ccnc2N[C@@H](C)c2ccc(Oc3ccc(C)cc3)c(F)c2)C1=O [Compound 24, (S)-2-ethyl-4-((1-(3-fluoro-4-(p-tolyloxy)phenyl)ethyl)amino)-2,3-dihydro-1H-pyrrolo[3,4-c]pyridin-1-one] | < 1000 | < 1500 | 45.5 | 54.6 | 72.1 | 92.1
4 | Cc1ccc(Oc2ccc([C@H](C)Nc3nccc4c3CN(C(C)C)C4=O)cc2)cc1 [Compound 31, (S)-2-isopropyl-4-((1-(4-(p-tolyloxy)phenyl)ethyl)amino)-2,3-dihydro-1H-pyrrolo[3,4-c]pyridin-1-one] | < 1000 | < 1500 | 36.9 | 57.8 | 68.7 | 89.1
